According to ChEMBL document CHEMBL1201862, “PubChem BioAssay data set” (2004):
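Tested at 5 concentrations; 48 h exposure; 96-well plates; endpoints linearly interpolated, else capped at highest concentration. Here, GI50 denotes the concentration required for 50% inhibition of growth.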 The source made the active and inactive calls. Cut-off read from the data, not from the text of the source: active = GI50 up to about 1.1 µM and inactive = higher.

How the values were obtained:
Assay in all cases: DTP human tumour cell line panel, 48 h
786-0 = system: 786-0
EKVX = system: EKVX
HCT-116 = system: HCT-116
HOP-62 = system: HOP-62
HT-29 = system: HT-29
Hs-578T = system: Hs-578T
IGROV-1 = system: IGROV-1
K562 = system: K562
NCI-H522 = system: NCI-H522
OVCAR-3 = system: OVCAR-3
PC-3 = system: PC-3
SF-268 = system: SF-268
SK-MEL-2 = system: SK-MEL-2
SR = system: SR
UACC-257 = system: UACC-257
UO-31 = system: UO-31
NCI-H23 = system: NCI-H23
NCI-H460 = system: NCI-H460
UACC-62 = system: UACC-62
BT-549 = system: BT-549

Measured: GI50

OCC(O)C(O)C(C=NNc1ncnc2ccc(Br)cc12)=NNc1ncnc2ccc(Br)cc12 (stereo not drawn)
active: EKVX 0.581 µM | HCT-116 0.404 µM | HT-29 0.662 µM | NCI-H522 0.404 µM | OVCAR-3 0.344 µM | SR 0.579 µM
inactive: 786-0 1.14 µM | HOP-62 5.12 µM | Hs-578T 41.9 µM | IGROV-1 1.45 µM | K562 2.58 µM | PC-3 4.73 µM | SF-268 1.16 µM | SK-MEL-2 2.26 µM | UACC-257 3.52 µM | UO-31 9.71 µM

N#Cc1c(N2CCCC2)ncn(-c2ccccc2)c1=O
inactive: 786-0 > 100 µM | EKVX > 100 µM | HCT-116 > 100 µM | HOP-62 > 100 µM | HT-29 > 100 µM | Hs-578T > 100 µM | IGROV-1 > 100 µM | K562 > 100 µM | NCI-H23 > 100 µM | NCI-H460 > 100 µM | NCI-H522 > 100 µM | OVCAR-3 > 100 µM | PC-3 > 100 µM | SF-268 > 100 µM | SK-MEL-2 > 100 µM | SR > 100 µM | UACC-257 > 100 µM | UACC-62 > 100 µM | UO-31 > 100 µM

CC[C@H](C)[C@H]1NC(=O)[C@@H](NC(=O)[C@@H](CC(C)C)N(C)C(=O)C2CCCN2C(=O)[C@H](C)O)[C@@H](C)OC(=O)[C@H](Cc2ccccc2)N(C)C(=O)[C@@H]2CCCN2C(=O)[C@H](CC(C)C)NC(=O)[C@@H](C)C(=O)[C@H](C(C)C)OC(=O)C[C@@H]1O (stereo partly drawn)
active: 786-0 < 0.00625 µM | BT-549 < 0.00625 µM | EKVX < 0.00625 µM | HCT-116 < 0.00625 µM | HOP-62 < 0.00625 µM | HT-29 < 0.00625 µM | Hs-578T < 0.00625 µM | IGROV-1 < 0.00625 µM | K562 < 0.00625 µM | NCI-H23 < 0.00625 µM | NCI-H460 < 0.00625 µM | NCI-H522 < 0.00625 µM | OVCAR-3 < 0.00625 µM | PC-3 < 0.00625 µM | SF-268 < 0.00625 µM | SK-MEL-2 < 0.00625 µM | UACC-257 < 0.00625 µM | UACC-62 < 0.00625 µM | UO-31 < 0.00625 µM

C(CCCCc1nnc(N2CCOCC2)o1)CCCc1nnc(N2CCOCC2)o1
inactive: 786-0 > 100 µM | BT-549 > 100 µM | EKVX > 100 µM | HCT-116 > 100 µM | HOP-62 > 100 µM | HT-29 > 100 µM | IGROV-1 > 100 µM | K562 > 100 µM | NCI-H23 > 100 µM | NCI-H460 > 100 µM | OVCAR-3 > 100 µM | PC-3 > 100 µM | SK-MEL-2 > 100 µM | UACC-257 > 100 µM | UO-31 > 100 µM

CCCCNc1nc(O)c2[nH]cnc2n1
inactive: 786-0 > 100 µM | BT-549 > 100 µM | EKVX > 100 µM | HCT-116 > 100 µM | HOP-62 > 100 µM | HT-29 > 100 µM | Hs-578T > 100 µM | IGROV-1 > 100 µM | K562 > 100 µM | NCI-H23 > 100 µM | NCI-H460 > 100 µM | NCI-H522 51.8 µM | OVCAR-3 > 100 µM | PC-3 > 100 µM | SF-268 > 100 µM | SK-MEL-2 > 100 µM | UACC-257 > 100 µM | UACC-62 > 100 µM | UO-31 > 100 µM

CCCCCCC(C)CC(CCCCCC)NCCOC(=O)c1ccc([N+](=O)[O-])cc1 (stereo not drawn)
active: K562 < 0.01 µM
inactive: 786-0 14.9 µM | BT-549 16.4 µM | EKVX 13.7 µM | HCT-116 11.7 µM | HOP-62 16.3 µM | HT-29 5.43 µM | Hs-578T 18.7 µM | IGROV-1 14.1 µM | NCI-H23 18 µM | NCI-H522 13.8 µM | SF-268 16.3 µM | SK-MEL-2 15.8 µM | UACC-257 9.46 µM | UACC-62 14.5 µM | UO-31 11.6 µM

CC1(C)C2CCC3CC(CCC#N)CCC3C21C#N (stereo not drawn)
inactive: 786-0 > 100 µM | EKVX > 100 µM | HCT-116 > 100 µM | HOP-62 > 100 µM | HT-29 > 100 µM | Hs-578T > 100 µM | IGROV-1 > 100 µM | K562 > 100 µM | NCI-H23 > 100 µM | NCI-H460 > 100 µM | NCI-H522 > 100 µM | OVCAR-3 > 100 µM | PC-3 > 100 µM | SF-268 > 100 µM | SK-MEL-2 > 100 µM | SR > 100 µM | UACC-257 > 100 µM | UACC-62 > 100 µM | UO-31 > 100 µM
